These results are taken from PMC10463274 (2023).

Each structure is given as a SMILES string.

Assay [1] relates to vancomycin aptamer (DNA, aptamer) CGAGGGTACCGCAATAGTACTTATTGTTCGCCTATTGTGGGTCGG
The experiment in a line: FFT-EIS electrochemical aptamer-based sensor (ket titration). As to conditions: whole bovine blood, 37 °C; apparent; error is 95% confidence interval; Hill–Langmuir fit.

Assay [2] deals with phenylalanine aptamer (DNA, aptamer) CGACCGCGTTTCCCAAGAAAGCAAGTATTGGTTGGTCG
Kind of assay: FFT-EIS electrochemical aptamer-based sensor. Particulars: in vitro calibration; details only in supporting information.

As for `CN[C@H](CC(C)C)C(=O)N[C@H]1C(=O)N[C@@H](CC(N)=O)C(=O)N[C@H]2C(=O)N[C@H]3C(=O)N[C@H](C(=O)N[C@H](C(=O)O)c4cc(O)cc(O)c4-c4cc3ccc4O)[C@H](O)c3ccc(c(Cl)c3)Oc3cc2cc(c3O[C@@H]2O[C@H](CO)[C@@H](O)[C@H](O)[C@H]2O[C@H]2C[C@](C)(N)[C@H](O)[C@H](C)O2)Oc2ccc(cc2Cl)[C@H]1O`, in assay [1], the KD worked out at 144 ± 31 µM.
Take `N[C@@H](Cc1ccccc1)C(=O)O`: in assay [2], the binding result is reported as “yes”.
